The source of these data is PMC6151695, “Novel Selective Estrogen Receptor Ligand Conjugates Incorporating Endoxifen-Combretastatin and Cyclofenil-Combretastatin Hybrid Scaffolds: Synthesis and Biochemical Evaluation” (Molecules : A Journal of Synthetic Chemistry and Natural …, 2017).

Data set [1] deals with peripheral blood mononuclear cells (PBMCs). Kind of data set: Flow cytometry (propidium iodide) in PBMCs of healthy donors. The format is cell-based, human. The settings on record: 10 µM, 72 h. On the procedure: Next, the same cohort of compounds was tested on peripheral blood mononuclear cells (PBMCs) isolated from the blood of healthy donors. Cells were treated with 10 µM of each compound for 72 h and subjected to flow cytometry.
(§1) MCF-7 cells were seeded at a density of 5 × 10^4 cells/well in a 12-well plate and treated with the indicated compounds for 72 h. Samples were then centrifuged at 650× g for 5 min and resuspended in 100 µL ice-cold PBS. Ice-cold 70% (v/v) ethanol (1 mL) was then added to fix the samples overnight at 4 °C. Samples were subsequently centrifuged at 800× g for 10 min and resuspended in 200 µL PBS. RNase A (12.5 µL of 10 mg/mL) and propidium iodide (37.5 µL of 1 mg/ mL) were added to samples which were then incubated for 30 min at 37°C. Cell cycle analysis was performed at 488 nm using a FACS Calibur flow cytometer (Becton Dickinson, Franklin Lakes, NJ, USA). The Macintosh-based application CellQuest was then used to analyse the data of 10,000 gated cells once cell debris had been excluded. Data points represent the mean ± S.E.M. of three independent experiments.
Fresh peripheral blood was collected from healthy donors and diluted 1:3 with RPMI medium and added to half the equivalent volume of Lymphoprep. Samples were centrifuged at 750× g for 30 min to form a Ficoll gradient. The white buffy layer containing the peripheral blood mononuclear cells was removed, diluted to a volume of 50 mL with medium and centrifuged again for 10 min at 650× g. Cells were then seeded at a density of 1 × 10^6 cells in 1 mL of RPMI medium supplemented with 10% FBS, 2 mM L-glutamine and 100 U/mL penicillin and 100 µg/mL streptomycin.
(In general: In flow cytometry, cells or beads pass a laser one at a time.)

Data set [2] concerns the target T1, human ERβ (Homo sapiens, UniProt Q92731).
T1 construct: purchased Invitrogen
The data set is described as follows: Estrogen receptor fluorescence polarisation competitive binding assay, ERβ. (Fluorescence polarisation rises when a labelled molecule tumbles more slowly, as on binding a larger partner.)

Data set [3] has as its system MCF-7 cells. Kind of data set: Flow cytometry (propidium iodide) cell cycle and apoptosis analysis in MCF-7. The format is cell-based, human. The settings on record: for apoptosis (in words): MCF-7, 72 h; for apoptosis / G2/M-arrest: MCF-7, 10 µM, 72 h. The protocol:
Flow cytometry with propidium iodide stained cells was carried out to analyse the percentage of cells in each stage of the cell cycle and the number of apoptotic or dead cells. Samples were treated for 72 h at 10 µM. […] […].
as §1

The test system of data set [4] is MCF-7 human breast cancer cell line. Kind of data set: Alamar Blue assay for antiproliferative effects. The data set is classed as cell-based. The following applies: Homo sapiens. A general note: Resazurin is reduced to fluorescent resorufin, in cell work by metabolically active cells.
Data set [5] addresses T2, human ERα (Homo sapiens, UniProt P03372).
T2 construct: purchased Invitrogen
T2 sequence (P03372 1-595): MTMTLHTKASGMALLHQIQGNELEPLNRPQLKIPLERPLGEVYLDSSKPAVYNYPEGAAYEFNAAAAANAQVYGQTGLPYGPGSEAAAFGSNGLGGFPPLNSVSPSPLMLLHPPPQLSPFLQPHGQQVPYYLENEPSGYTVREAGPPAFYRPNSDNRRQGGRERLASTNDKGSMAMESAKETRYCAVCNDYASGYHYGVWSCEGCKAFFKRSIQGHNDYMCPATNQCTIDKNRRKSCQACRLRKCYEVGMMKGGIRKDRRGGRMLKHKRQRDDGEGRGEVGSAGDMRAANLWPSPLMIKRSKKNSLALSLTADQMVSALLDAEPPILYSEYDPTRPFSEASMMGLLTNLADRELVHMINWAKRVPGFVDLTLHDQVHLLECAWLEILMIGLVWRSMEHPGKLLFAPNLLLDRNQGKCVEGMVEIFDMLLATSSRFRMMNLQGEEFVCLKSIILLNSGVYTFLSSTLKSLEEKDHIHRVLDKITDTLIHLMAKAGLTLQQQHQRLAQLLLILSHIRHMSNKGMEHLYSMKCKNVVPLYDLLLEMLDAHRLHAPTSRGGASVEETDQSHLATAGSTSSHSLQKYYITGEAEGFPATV
The data set is described as follows: Estrogen receptor fluorescence polarisation competitive binding assay, ERα. The following applies: for Selectivity (α/β): ratio of RBA values ERα relative to ERβ; for ERα RBA: relative binding affinity, estradiol (5.7 nM) = 100%.

Data set [6] deals with MCF-7 cells. The data set is described as follows: Lactate dehydrogenase (LDH) assay for cytotoxicity.
The test system of data set [7] is MCF-7 cells. The following applies: human.
A short description of data set [8]: HPLC stability study in phosphate buffer.
Data set [9] can be described thus: in vitro. The following applies: plasma.
[10] abbreviates: competitive binding, fluorescence polarisation, read-out: ERβ IC50.
[11] abbreviates: MCF7, 72 h, MCF-7, 72 h, Alamar Blue, read-out: IC50 (μM), antiproliferative effects.
The mark [12] stands for this setting: competitive binding, fluorescence polarisation, read-out: ERα IC50.
Where [13] appears, read: MCF7, 72 h, read-out: IC50 (μM), antiproliferative effects.

Where two headings read alike, the source gives them in different places.

T1 sequence (Q92731 whole entry): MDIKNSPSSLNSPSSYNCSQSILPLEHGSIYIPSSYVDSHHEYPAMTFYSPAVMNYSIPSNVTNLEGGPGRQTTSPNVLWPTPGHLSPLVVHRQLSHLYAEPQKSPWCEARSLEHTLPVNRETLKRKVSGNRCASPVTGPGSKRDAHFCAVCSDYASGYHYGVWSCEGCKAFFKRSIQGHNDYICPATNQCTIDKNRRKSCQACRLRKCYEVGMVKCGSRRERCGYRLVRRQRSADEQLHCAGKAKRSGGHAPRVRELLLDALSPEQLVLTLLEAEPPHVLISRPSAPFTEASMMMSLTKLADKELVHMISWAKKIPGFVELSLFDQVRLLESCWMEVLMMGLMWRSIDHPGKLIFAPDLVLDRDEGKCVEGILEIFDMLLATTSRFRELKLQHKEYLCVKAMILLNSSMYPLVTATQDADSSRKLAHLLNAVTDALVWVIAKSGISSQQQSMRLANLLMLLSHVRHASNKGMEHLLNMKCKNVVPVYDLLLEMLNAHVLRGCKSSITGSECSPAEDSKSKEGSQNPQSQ

Turning to `CCC(=C(c1ccc(O)cc1)c1ccc(OCCN(C)C(=O)/C(=C/c2cc(OC)c(OC)c(OC)c2)c2ccc(OC)c(O)c2)cc1)c1ccccc1` (mixture of isomers) [Compound 3i, (E/Z)-2-(3-Hydroxy-4-methoxyphenyl)-N-(2-(4-((Z)-1-(4-hydroxyphenyl)-2-phenylbut-1-en-1-yl)phenoxy)-ethyl)-N-methyl-3-(3,4,5-trimethoxyphenyl)acrylamide], in [1], the “apoptosis / toxic effects in PBMCs (in words)” value (shortened to “apoptosis / toxic effects”) is “lack of toxicity”. Further, the half-maximal inhibitory concentration (IC50) (in general, the midpoint of a concentration-inhibition curve) was found to be 436 nM in data set [2] (setting [10]), 4.2 µM in data set [4] (setting [11]) and 182 nM in data set [5] (setting [12]). For the same compound, the “apoptosis (in words)” value in data set [3] is listed as “potently induce apoptosis”. Besides, the “Selectivity (α/β)” value in data set [5] came to 2.44. Moreover, the “ERα RBA” value in data set [5] worked out at 3.13%.

With `COc1ccc(/C=C\c2cc(OC)c(OC)c(OC)c2)cc1O` [CA4, Combretastatin A-4, reference compound], the “cytotoxicity (LDH assay)” value in data set [6] is listed as 13%. Besides, in data set [4] (setting [11]), the half-maximal inhibitory concentration (IC50) was 0.008 µM.

For `CNCCOc1ccc(C(=C2CCCCCC2)c2ccc(O)cc2)cc1` [Compound 11c, 4-(Cycloheptylidene(4-(2-(methylamino)ethoxy)phenyl)methyl)phenol], the “apoptosis / toxic effects” value in [1] is “induced apoptosis in PBMCs”. For the same compound, the IC50 in data set [2] (setting [10]) is 199 nM; in data set [4] (setting [11]), 1.38 µM; in data set [5] (setting [12]), 1740 nM. Also, in data set [3], the apoptosis is listed as 79.7 ± 5.2%. In data set [3], the “apoptosis (in words)” value is “potently induce apoptosis”. Besides, the “Selectivity (α/β)” value in data set [5] is on record as 0.12. In [5], the “ERα RBA” value was determined as 0.328%.

On to `CNCCOc1ccc(C(=C2CCCCCCC2)c2ccc(O)cc2)cc1` [Compound 11d, 4-(Cyclooctylidene(4-(2-(methylamino)ethoxy)phenyl)methyl)phenol], for which the figures for the IC50 in data set [2] (setting [10]), in [4] (setting [11]) and in data set [5] (setting [12]) were 112 nM, 3.23 µM and 170 nM, respectively. Also, the “Selectivity (α/β)” value in [5] is given as 0.67. Also, in data set [5], the “ERα RBA” value is reported as 3.35%.

On to `CNCCOc1ccc(C(=C2CCC(C)CC2)c2ccc(O)cc2)cc1` (stereo not drawn) [Compound 11e, 4-((4-(2-(Methylamino)ethoxy)phenyl)(4-methylcyclohexaneylidene)methyl)phenol], for which the “apoptosis / toxic effects” value in data set [1] is recorded as “induced apoptosis in PBMCs”. In data set [2] (setting [10]), the half-inhibitory concentration (IC50) stood at 67 nM. Further, in data set [3], the apoptosis is reported as 76% and the “apoptosis (in words)” value is given as “potently induce apoptosis”. Further, in data set [4] (setting [11]), the 50% inhibitory concentration (IC50) came out at 1.77 µM. Further, the IC50 in data set [5] (setting [12]) amounted to 3160 nM. In [5], the “Selectivity (α/β)” value is given as 0.02 and the “ERα RBA” value was 0.180%.

On to `COc1ccc(/C=C(/C(=O)N(C)CCOc2ccc(C(=C3CCCCCC3)c3ccc(O)cc3)cc2)c2cc(OC)c(OC)c(OC)c2)cc1O` [Compound 13c, (E)-N-(2-(4-(Cycloheptylidene(4-hydroxyphenyl)methyl)phenoxy)ethyl)-3-(3-hydroxy-4-methoxyphenyl)-N-methyl-2-(3,4,5-trimethoxyphenyl)acrylamide], for which the apoptosis in data set [3] is recorded as 20%. For the same compound, the 50% inhibitory concentration (IC50) in data set [4] (setting [11]) worked out at 2.5 µM.

Take `COc1ccc(/C=C(/C(=O)N(C)CCOc2ccc(C(=C3CCCCCCC3)c3ccc(O)cc3)cc2)c2cc(OC)c(OC)c(OC)c2)cc1O` [Compound 13d, (E)-N-(2-(4-(Cyclooctylidene(4-hydroxyphenyl)methyl)phenoxy)ethyl)-3-(3-hydroxy-4-methoxyphenyl)-N-methyl-2-(3,4,5-trimethoxyphenyl)acrylamide]: the “apoptosis / toxic effects” value in data set [1] was “lack of toxicity”. Further, in data set [3], the G2/M-arrest stood at 27%, the apoptosis is given as 36% and the “apoptosis (in words)” value is given as “potently induce apoptosis”. Besides, the IC50 in data set [4] (setting [13]) was 0.346 µM.

In the case of `COc1ccc(/C=C(/C(=O)N(C)CCOc2ccc(C(=C3CCC(C)CC3)c3ccc(O)cc3)cc2)c2cc(OC)c(OC)c(OC)c2)cc1O` (stereo not drawn) [Compound 13e, (E)-3-(3-Hydroxy-4-methoxyphenyl)-N-(2-(4-((4-hydroxyphenyl)(4-methylcyclohexaneylidene)methyl)-phenoxy)ethyl)-N-methyl-2-(3,4,5-trimethoxyphenyl) acrylamide], the “apoptosis / toxic effects” value in data set [1] is given as “lack of toxicity”. Moreover, the IC50 in [2] was 229 nM. Further, in data set [3], the G2/M-arrest stood at 18%, the apoptosis is on record as 48% and the “apoptosis (in words)” value is reported as “potently induce apoptosis”. Also, in [4] (setting [13]), the IC50 is 0.182 µM. The IC50 in [4] (MCF7, read-out: IC50, antiproliferative activity) turned out to be 0.187 µM. For the same compound, in data set [5], the IC50 turned out to be 19 nM, the “Selectivity (α/β)” value was 12.3 and the “ERα RBA” value is recorded as 30%. Besides, in data set [5] (binding affinity preference), the “selectivity towards ERα over ERβ” value is listed as 12 fold.

Consider `CC/C(=C(\c1ccc(O)cc1)c1ccc(OCCN(C)C(=O)CCC(=O)Oc2cc(/C=C\c3cc(OC)c(OC)c(OC)c3)ccc2OC)cc1)c1ccccc1` [Compound 16b, N-(2-{4-[(Z)-1-(4-Hydroxyphenyl)-2-phenylbut-1-enyl]phenoxy}ethyl)-N-methyl succinamic acid 2-methoxy-5-[(Z)-2-(3,4,5-trimethoxyphenyl)vinyl]phenyl ester], for which the “remained intact in plasma at 12 h” value was determined as 77%. Moreover, the “cytotoxicity (LDH assay)” value in data set [7] is 4.1%. In addition, the “remained at 12 h” value in data set [8] (pH range 4–9, 12 h) is greater than 90%. Also, the half-life (commonly the time in which the quantity being followed falls by half) in data set [9] is greater than 48 h. For the same compound, the IC50 in data set [4] (setting [13]) came out at 0.0057 µM.

Regarding `CC/C(=C(\c1ccccc1)c1ccc(OCCN(C)C(=O)CCC(=O)Oc2cc(/C=C(/C(=O)OC)c3cc(OC)c(OC)c(OC)c3)ccc2OC)cc1)c1ccccc1` [Compound 16c, N-{2-[4-((Z)-1,2-Diphenylbut-1-enyl)phenoxy]ethyl}-N-methylsuccinamic acid 2-methoxy-5-[(E)-2-methoxycarbonyl-2-(3,4,5-trimethoxyphenyl)vinyl]phenyl ester], in [8] (half-life, pH range 4–9), the half-life at 14.6 µg/mL was greater than 20 h. For the same compound, the 50% inhibitory concentration (IC50) in data set [2] (setting [10]) was found to be 90.1 nM. In data set [5] (setting [12]), the IC50 worked out at 70.9 nM. In data set [5], the “Selectivity (α/β)” value is on record as 1.29 and the “ERα RBA” value is reported as 8.04%.

`CC/C(=C(\c1ccc(O)cc1)c1ccc(OCCNC)cc1)c1ccccc1` [Endoxifen]: in data set [6], the “cytotoxicity (LDH assay)” value is 23%. Moreover, the IC50 worked out at 118 nM in [2] (setting [10]), 0.029 µM in data set [4] (setting [11]) and 47 nM in data set [5] (setting [12]). Moreover, the “Selectivity (α/β)” value in [5] came to 2.55. The “ERα RBA” value in data set [5] worked out at 12.1%.

Consider “N-(2-{4-[1,2-Bis-(4-hydroxyphenyl)but-1-enyl]phenoxy}ethyl)-N-methylsuccinamic acid [Compound 14c]”, for which the IC50 in data set [2] (setting [10]) was determined as 6.7 nM. Further, in [5] (setting [12]), the IC50 worked out at 11.3 nM. In data set [5] (in both ER isoforms), the “increase in binding affinity compared to 4-hydroxytamoxifen” value is listed as “approximately 3 fold”. Besides, in data set [5], the “Selectivity (α/β)” value is reported as 0.60 and the “ERα RBA” value is on record as 50.44%.
